Reference: patent US20230100235A1, “ANTICANCER AGENT COMPOSITION” (CARNA BIOSCIENCES, INC., priority 2020, published 2023)
Structures can show the parent of a compound that is named as a salt. Where two headings read alike, the source gives them in different places.

Assays:
Assay type in all cases: cell-based, Human
U2932 cells = test: Cell proliferation suppression test of single agents, U2932 (Alamar Blue, 96 h); details: read-out: Inhibitory Activity on cell proliferation IC50 U2932
Method: Human lymphoma cell line U2932 cells (obtained from DSMZ) were cultured in a 5% CO2 incubator using RPMI medium (Roswell Park Memorial Institute medium, Thermo Fisher Scientific Inc.) containing 10% fetal bovine serum (GE Healthcare) and 1% penicillin streptomycin (NACALAI TESQUE, INC.).
(§1) The OCI-Ly10 or U2932 cells (20000 cells/well) were seeded into 96-well plates (cell plates), to which the test compound diluted with the medium was added at final concentrations of 0.009 nM to 30000 nM (a final DMSO concentration of 0.3%), and after 96 hours of culture, an Alamar Blue reagent (Thermo Fisher Scientific Inc.) was added. After 3 hours, the fluorescence of excitation wavelength 560 nm/fluorescence wavelength 590 nm was measured and IC50 values of inhibitory activity were determined by setting a compound-free and cell-free well as 100% and a compound-free and cell-containing well as 0%.

[1] = system: BTK-C481S-mutant OCI-Ly10 cells; test: Cell proliferation suppression test of single agents, BTK-C481S-mutant OCI-Ly10; details: single agent, read-out: Inhibitory activity on cell proliferation OCI-Ly10 BTK-C481S IC50
Method: as §1
BTK-C481S-mutant OCI-Ly10 cells were produced by point mutation knock-in using the CRISPR-Cas9 system. Cas9 protein (Thermo Fisher Scientific Inc.), guide RNA prepared with GeneArt™ Precision gRNA Synthesis Kit (Thermo Fisher Scientific Inc.), and a single-stranded synthetic oligonucleotide to replace 481st cysteine residue of BTK with a serine residue were introduced into OCI-Ly10 cells by an electroporation method. The resulting modified OCI-Ly10 cells were cultured in the presence of ibrutinib, and the grown cells were used as BTK-C481S-mutant OCI-Ly10 cells. Transduction of the mutation was confirmed by genomic DNA and mRNA sequence analysis.
In the same manner as in Test Example 1, IC50 values for each inhibitor single agent were determined.

OCI-Ly10 cells = test: Cell proliferation suppression test of single agents, OCI-Ly10 (Alamar Blue, 96 h); details: read-out: Inhibitory Activity on cell proliferation IC50 OCI-Ly10
Method: Human lymphoma cell line OCI-Ly10 cells (obtained from University Health Network) were cultured in a 5% CO2 incubator using IMDM medium (Iscove's Modified Dulbecco's Medium, Thermo Fisher Scientific Inc.) containing 20% fetal bovine serum (GE Healthcare) and 1% penicillin streptomycin (NACALAI TESQUE, INC.).
as §1

[2] = Homo sapiens, U2932, single agent
[3] = Homo sapiens, OCI-Ly10, single agent

SMILES | IC50 (U2932 cells; single agent) [nM] | IC50 [1] [nM] | IC50 (OCI-Ly10 cells; single agent) [nM] | IC50 (U2932 cells; [2]) [nM] | IC50 ([1]; Homo sapiens, OCI-Ly10) [nM] | IC50 (OCI-Ly10 cells; [3]) [nM]
O=C(c1cc(-c2cc3c(cc2C(=O)N2Cc4ccccc4C[C@H]2CN2CCOCC2)OCO3)n2c1CCCC2)N(c1ccccc1)c1ccc(O)cc1 [Compound S-55746] | 1350 | 120 | 69 |  |  | 
COC1=CC(c2cc3ccccc3[nH]2)=N/C1=C\c1[nH]c(C)cc1C [obatoclax mesylate] |  |  |  | 190 | 150 | 150
CC1(C)CCC(c2ccc(Cl)cc2)=C(CN2CCN(c3ccc(C(=O)NS(=O)(=O)c4ccc(N[C@H](CCN5CCOCC5)CSc5ccccc5)c(S(=O)(=O)C(F)(F)F)c4)cc3)CC2)C1 [navitoclax] |  |  |  | 390 | 96 | 68
CC1(C)CCC(CN2CCN(c3ccc(C(=O)NS(=O)(=O)c4ccc(NCC5CCOCC5)c([N+](=O)[O-])c4)c(Oc4cnc5[nH]ccc5c4)c3)CC2)=C(c2ccc(Cl)cc2)C1 [venetoclax] |  |  |  | 720 | 20 | 10
